Measured values: patent US20100210589A1, “METHOD FOR IMPROVING HEPATIC FUNCTION” (Kabushiki Kaisha Kayashibara Seibutsu Kagaku Kenkyujo, priority 2004, published 2010)

Test system: golden hamsters
Test: Administration test of α-glucosyl-hesperidin on hamsters (serum GOT and GPT, cholesterol-supplemented feed)
Format: in vivo, golden hamster
Conditions: compared with hesperidin at equal molar dose
Experimental: The animal experiment using hamsters was performed to investigate the influences of the intake of α-glucosyl-hesperidin on hepatic functions.
A group of five golden hamsters of five weeks old was fed on liberal amount of “NMF Lab Animal Diet Powder” (produced by Oriental Yeast Co., Ltd.) with the administration of “αG-HESPERIDINPS®” (a powdery α-glucosyl-hesperidin containing […] of α-glucosyl-hesperidin, commercialized by Hayashibara Shoji, Inc.) dissolved in distilled water. α-Glucosyl-hesperidin was administered to the hamsters through a stomach sonde at a dose of 0.25 mmole (193 mg)/kg/body weight every day. After two-week administrations of α-glucosyl-hesperidin, the hamsters were fed for additional three weeks in the same way as described above except that their feed was supplemented with 1% by weight of cholesterol. At four hours after the final administrations, the hamsters were anesthetized and underwent laparotomy, and their large-venous blood samples were taken. After the separation of the hamsters' serums by a conventional method, the levels of GOT and GPT were measured. […] The other group was fed on liberal amount of “NMF Lab Animal Diet Powder” with no administration of the test articles and their blood samples were taken in the same way as describe above, and the serum levels of GOT and GPT were measured to obtain the data before the administrations.

For `COc1ccc(C2CC(=O)c3c(O)cc(O[C@@H]4OC(CO[C@@H]5OC(C)[C@H](O)C(O)C5O)[C@@H](COC[C@H]5OC(CO)[C@@H](O)C(O)C5O)C(O)C4O)cc3O2)cc1O` (stereo partly drawn) [α-Glucosyl-hesperidin, α-glucosyl-hesperidin], the “effect for keeping hepatic-function indexes (serum GOT, GPT) at a lower level” value was “greater effect than that of hesperidin”.
